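A five-concentration, 48-hour dose response in 96-well plates underlies each endpoint, interpolated linearly between surrounding concentrations. Here, GI50 denotes the concentration required for 50% inhibition of growth.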 The source made the active and inactive calls. Cut-off read from the data, not from the text of the source: active = GI50 up to about 1.1 µM and inactive = higher.
Columns and labels:
Assay in all cases: inhibition of tumour cell growth, NCI panel, 48 h
[1] = test system: CAKI-1
[2] = test system: SN12C
[3] = test system: HCT-116
[4] = test system: UACC-257
[5] = test system: UACC-62
[6] = test system: HT-29
[7] = test system: OVCAR-8
[8] = test system: HL-60
[9] = test system: ACHN
[10] = test system: TK-10
[11] = test system: SK-MEL-28
[12] = test system: SK-MEL-2
[13] = test system: NCI-H522
[14] = test system: SF-539
[15] = test system: HOP-62
[16] = test system: OVCAR-4
[17] = test system: NCI-H460
[18] = test system: NCI-H226
[19] = test system: HOP-92
[20] = test system: LOX IMVI

| SMILES | GI50 [1] | GI50 [2] | GI50 [3] | GI50 [4] | GI50 [5] | GI50 [6] | GI50 [7] | GI50 [8] | GI50 [9] | GI50 [10] | GI50 [11] | GI50 [12] | GI50 [13] | GI50 [14] | GI50 [15] | GI50 [16] | GI50 [17] | GI50 [18] | GI50 [19] | GI50 [20] |
| --- | --- | --- | --- | --- | --- | --- | --- | --- | --- | --- | --- | --- | --- | --- | --- | --- | --- | --- | --- | --- |
| CCOC(=O)c1cc(C(=O)O)c(=O)n2c1[nH]c1ccccc12 | > 100 µM (inactive) | > 100 µM (inactive) | 40.7 µM (inactive) | > 100 µM (inactive) | 44.5 µM (inactive) | > 100 µM (inactive) | > 100 µM (inactive) | > 100 µM (inactive) | > 100 µM (inactive) | > 100 µM (inactive) | 26.2 µM (inactive) | > 100 µM (inactive) | 26.7 µM (inactive) | 36.4 µM (inactive) | > 100 µM (inactive) | > 100 µM (inactive) | 89.9 µM (inactive) | – | – | – |
| COc1ccc(N[C@H](C[S+]([O-])c2ccc(C)cc2)C(F)(F)C(F)(F)F)cc1 (some centres undefined) | > 100 µM (inactive) | > 100 µM (inactive) | 52.4 µM (inactive) | > 100 µM (inactive) | 43 µM (inactive) | > 100 µM (inactive) | 90.6 µM (inactive) | > 100 µM (inactive) | > 100 µM (inactive) | > 100 µM (inactive) | > 100 µM (inactive) | – | 71.4 µM (inactive) | 64.6 µM (inactive) | 57.5 µM (inactive) | 95.7 µM (inactive) | > 100 µM (inactive) | 31 µM (inactive) | 26.1 µM (inactive) | 91.4 µM (inactive) |
| CCCCOc1ccc2c(c1)CC[C@@H]1[C@@H]2CC[C@]2(C)C(=O)N(CCCC)C(=O)C[C@@H]12 | > 100 µM (inactive) | > 100 µM (inactive) | > 100 µM (inactive) | – | > 100 µM (inactive) | > 100 µM (inactive) | > 100 µM (inactive) | 44.4 µM (inactive) | – | – | – | > 100 µM (inactive) | > 100 µM (inactive) | – | > 100 µM (inactive) | – | > 100 µM (inactive) | > 100 µM (inactive) | > 100 µM (inactive) | – |
| Cc1ccc(/C=C/C(=O)C(C)C)cc1 | – | – | – | 53.6 µM (inactive) | 37.2 µM (inactive) | 37.3 µM (inactive) | 96.8 µM (inactive) | – | 83.8 µM (inactive) | > 100 µM (inactive) | > 100 µM (inactive) | 36.3 µM (inactive) | 24.8 µM (inactive) | – | – | > 100 µM (inactive) | 44.7 µM (inactive) | – | 41.8 µM (inactive) | – |
| COC(=O)c1cccc2c3ccccc3c3ccccc3c12 | 40.4 µM (inactive) | 45.4 µM (inactive) | 37.8 µM (inactive) | 38.3 µM (inactive) | 24.3 µM (inactive) | 29.5 µM (inactive) | 24.4 µM (inactive) | 23.3 µM (inactive) | 79.3 µM (inactive) | 46.5 µM (inactive) | 41.5 µM (inactive) | 24.8 µM (inactive) | 36.4 µM (inactive) | – | > 100 µM (inactive) | 64.3 µM (inactive) | – | > 100 µM (inactive) | – | 29.4 µM (inactive) |
| NCCCCNOCCCN | > 100 µM (inactive) | > 100 µM (inactive) | > 100 µM (inactive) | > 100 µM (inactive) | > 100 µM (inactive) | > 100 µM (inactive) | > 100 µM (inactive) | – | > 100 µM (inactive) | > 100 µM (inactive) | > 100 µM (inactive) | > 100 µM (inactive) | 61.5 µM (inactive) | > 100 µM (inactive) | – | > 100 µM (inactive) | > 100 µM (inactive) | > 100 µM (inactive) | > 100 µM (inactive) | > 100 µM (inactive) |
| O=C(/C=C1\Nc2ncccc2N=C1CC(=O)c1ccccc1)c1ccccc1 | 2.06 µM (inactive) | 2.24 µM (inactive) | – | 65.6 µM (inactive) | 2.84 µM (inactive) | 6.89 µM (inactive) | 5.93 µM (inactive) | 13.5 µM (inactive) | 4.94 µM (inactive) | 35.6 µM (inactive) | 32.3 µM (inactive) | 12.6 µM (inactive) | 11 µM (inactive) | 13.2 µM (inactive) | 0.679 µM (active) | 9.2 µM (inactive) | 1.59 µM (inactive) | – | 3.52 µM (inactive) | 5.12 µM (inactive) |
| NCc1ccccc1-c1c2nc(c(-c3ccccc3CN)c3ccc([nH]3)c(-c3ccccc3CN)c3nc(c(-c4ccccc4CN)c4ccc1[nH]4)C=C3)C=C2 | – | 18.7 µM (inactive) | 13.7 µM (inactive) | 20.3 µM (inactive) | 24.9 µM (inactive) | 28.2 µM (inactive) | 37 µM (inactive) | 14.5 µM (inactive) | 16.4 µM (inactive) | 27.5 µM (inactive) | 19 µM (inactive) | 24.7 µM (inactive) | – | – | 22.1 µM (inactive) | 19.4 µM (inactive) | 19.1 µM (inactive) | 13.9 µM (inactive) | 7.08 µM (inactive) | 19.7 µM (inactive) |
| COC1CCC2C(=O)CCCC2O1 (centres undefined) | > 100 µM (inactive) | > 100 µM (inactive) | > 100 µM (inactive) | > 100 µM (inactive) | > 100 µM (inactive) | > 100 µM (inactive) | > 100 µM (inactive) | > 100 µM (inactive) | > 100 µM (inactive) | > 100 µM (inactive) | – | > 100 µM (inactive) | > 100 µM (inactive) | > 100 µM (inactive) | > 100 µM (inactive) | > 100 µM (inactive) | > 100 µM (inactive) | > 100 µM (inactive) | > 100 µM (inactive) | – |
| O=S1(=O)C[C@H](NCc2ccccc2)[C@H](NCc2ccccc2)C1 | > 100 µM (inactive) | > 100 µM (inactive) | > 100 µM (inactive) | > 100 µM (inactive) | > 100 µM (inactive) | > 100 µM (inactive) | 96.2 µM (inactive) | – | > 100 µM (inactive) | > 100 µM (inactive) | > 100 µM (inactive) | > 100 µM (inactive) | 17.6 µM (inactive) | > 100 µM (inactive) | > 100 µM (inactive) | > 100 µM (inactive) | > 100 µM (inactive) | > 100 µM (inactive) | > 100 µM (inactive) | > 100 µM (inactive) |
| COC(=O)C1=C(O)C(C(=O)OC)[C@@]2(O)[C@@H](C(=O)OC)[C@H](C)C[C@@H]1[C@@H]2C(=O)OC (some centres undefined) | – | 36.6 µM (inactive) | 35.5 µM (inactive) | 63.1 µM (inactive) | 23.7 µM (inactive) | 27.6 µM (inactive) | – | 25.9 µM (inactive) | 59.8 µM (inactive) | 57.9 µM (inactive) | 46.2 µM (inactive) | 21.4 µM (inactive) | 25.2 µM (inactive) | 18.4 µM (inactive) | 31.8 µM (inactive) | – | 20 µM (inactive) | 39.3 µM (inactive) | – | 32.5 µM (inactive) |
| Cc1nc2ccc(F)cc2c2c1CCS2 | – | – | 46.6 µM (inactive) | 71.9 µM (inactive) | 81.7 µM (inactive) | 71.8 µM (inactive) | 69.3 µM (inactive) | 24 µM (inactive) | 73.6 µM (inactive) | 54.5 µM (inactive) | 80.5 µM (inactive) | – | 75.5 µM (inactive) | > 100 µM (inactive) | 57.4 µM (inactive) | > 100 µM (inactive) | 48.2 µM (inactive) | – | 94.6 µM (inactive) | 51.3 µM (inactive) |
| CSc1ccccc1P(c1ccccc1SC)c1ccccc1SC | > 100 µM (inactive) | > 100 µM (inactive) | > 100 µM (inactive) | – | > 100 µM (inactive) | – | > 100 µM (inactive) | – | > 100 µM (inactive) | > 100 µM (inactive) | > 100 µM (inactive) | > 100 µM (inactive) | – | > 100 µM (inactive) | 25.4 µM (inactive) | > 100 µM (inactive) | – | > 100 µM (inactive) | > 100 µM (inactive) | > 100 µM (inactive) |
| Cc1cc(C)c(-n2[nH]c(=O)n(C)c2=O)c(C)c1 | > 100 µM (inactive) | > 100 µM (inactive) | > 100 µM (inactive) | > 100 µM (inactive) | > 100 µM (inactive) | > 100 µM (inactive) | > 100 µM (inactive) | > 100 µM (inactive) | – | > 100 µM (inactive) | > 100 µM (inactive) | > 100 µM (inactive) | > 100 µM (inactive) | > 100 µM (inactive) | – | > 100 µM (inactive) | > 100 µM (inactive) | > 100 µM (inactive) | – | > 100 µM (inactive) |
| CCc1cccc(C)c1NC(=O)C(=O)CC(=O)c1ccc(Cl)s1 | > 100 µM (inactive) | > 100 µM (inactive) | > 100 µM (inactive) | > 100 µM (inactive) | > 100 µM (inactive) | > 100 µM (inactive) | > 100 µM (inactive) | > 100 µM (inactive) | > 100 µM (inactive) | > 100 µM (inactive) | > 100 µM (inactive) | > 100 µM (inactive) | – | > 100 µM (inactive) | > 100 µM (inactive) | > 100 µM (inactive) | > 100 µM (inactive) | > 100 µM (inactive) | > 100 µM (inactive) | > 100 µM (inactive) |
| Nc1nnc(O)c2c1c(I)cn2C1OC(CO)C(O)C1O (centres undefined) | – | 0.284 µM (active) | 0.232 µM (active) | 2.15 µM (inactive) | 3.12 µM (inactive) | 0.122 µM (active) | 0.105 µM (active) | 0.118 µM (active) | 0.592 µM (active) | 3.01 µM (inactive) | 1.18 µM (inactive) | 0.0226 µM (active) | – | 0.526 µM (active) | 2.5 µM (inactive) | 1.3 µM (inactive) | 0.0728 µM (active) | 3.04 µM (inactive) | 0.805 µM (active) | 0.112 µM (active) |

— ChEMBL document CHEMBL1201862, “PubChem BioAssay data set” (2004)
